From patent US20090057618A1, “Corrosion inhibitors containing amphoteric surfactants” (Clariant International Ltd., priority 2007, published 2009)

Experiment: Shell wheel test (corrosion inhibition)
Conditions: 50 ppm of a 24% solution of the inhibitor; salt water/petroleum 9:1, 5% NaCl, pH 3.5; 40 rpm, 70° C., 24 hours; from decrease in coupon mass vs blank
Protocol: The compounds according to the invention were tested as corrosion inhibitors in the Shell wheel test. Coupons of C steel (DIN 1.1203 with 15 cm^2 surface area) were immersed in a salt water/petroleum mixture (9:1, 5% strength NaCl solution adjusted to pH 3.5 with acetic acid) and exposed to this medium at a speed of 40 rpm at 70° C. for 24 hours. The inhibitor dose was 50 ppm of a 24% solution of the inhibitor. The protection values were calculated from the decrease in the mass of the coupons, based on a blank value.

Q: With CCCCCCCC/C=C\CCCCCCCC(=O)NC(CCSC)C(=O)[O-].[K+] (racemic) [Example 2, N-Oleoyl-DL-methionine Potassium Salt] as the compound, how does the ø protection % read?
A: 69%
